From ChEMBL document CHEMBL5143564, “PES derivative PESA is a potent tool to globally profile cellular targets of PES” (Bioorg Med Chem Lett, 2022)
Active and inactive are the calls of the source. The calls are words filed in the database; no cut-off is given here.

What was measured:
Plastin-2 (Homo sapiens) = biological target: T1, Plastin-2 (Homo sapiens) (UniProt P13796); test: Binding affinity to plastin-2 in human MDA-MB-453 cells measured after 6 hrs by pull-down assay; format: cell-based; conditions: dose <= 20.0 µM, DDE = dose-dependent effect
T1 sequence (whole entry): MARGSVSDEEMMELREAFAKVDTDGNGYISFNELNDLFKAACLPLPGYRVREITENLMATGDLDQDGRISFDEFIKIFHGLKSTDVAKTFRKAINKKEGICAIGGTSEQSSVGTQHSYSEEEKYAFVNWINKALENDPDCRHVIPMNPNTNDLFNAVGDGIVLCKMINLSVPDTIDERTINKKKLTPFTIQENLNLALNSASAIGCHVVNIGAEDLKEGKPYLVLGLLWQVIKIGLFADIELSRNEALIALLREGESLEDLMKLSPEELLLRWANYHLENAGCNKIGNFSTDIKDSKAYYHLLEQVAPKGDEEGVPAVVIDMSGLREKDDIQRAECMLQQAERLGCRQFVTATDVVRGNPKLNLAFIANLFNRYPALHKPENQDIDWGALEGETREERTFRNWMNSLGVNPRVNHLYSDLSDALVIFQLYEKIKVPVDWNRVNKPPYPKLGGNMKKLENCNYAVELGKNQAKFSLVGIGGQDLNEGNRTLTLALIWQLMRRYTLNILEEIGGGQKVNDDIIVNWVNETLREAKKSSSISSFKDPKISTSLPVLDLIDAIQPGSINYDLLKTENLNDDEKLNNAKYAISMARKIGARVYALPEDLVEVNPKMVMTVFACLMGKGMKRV

[1] = GSH reactivity in pH 7.4 buffer assessed as GSH adduct formation at 1 mM by HPLC analysis; format: physicochemical; conditions: pH 7.4, 1000 µM
DOHH-2 [2] = test: Induction of apoptosis in human DOHH-2 cells assessed as increase in cleaved PARP expression at 8 uM measured after 4 to 24 hrs by Western blot analysis; format: functional, cell-based; conditions: time 4-24 hrs
DOHH-2 [3] = test: Induction of apoptosis in human DOHH-2 cells assessed as increase in cleaved PARP expression at 0.5 to 8 uM measured after 24 hrs by Western blot analysis; format: functional, cell-based; conditions: dose 0.5-8 µM
[4] = biological target: T2, Peroxiredoxin-1 (Homo sapiens) (UniProt Q06830); test: Binding affinity to PRDX1 in human DOHH-2 cells measured after 6 hrs by pull-down assay; format: cell-based; conditions: DDE = dose-dependent effect
T2 sequence (whole entry): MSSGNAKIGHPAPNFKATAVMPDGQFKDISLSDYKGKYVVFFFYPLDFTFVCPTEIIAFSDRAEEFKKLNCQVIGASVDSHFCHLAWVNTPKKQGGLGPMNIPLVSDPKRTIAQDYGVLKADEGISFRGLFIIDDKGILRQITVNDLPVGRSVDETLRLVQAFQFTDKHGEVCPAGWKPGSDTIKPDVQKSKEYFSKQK

[5] = biological target: T3, Protein disulfide-isomerase A3 (Homo sapiens) (UniProt P30101); test: Binding affinity to PDIA3 in human DOHH-2 cells measured after 6 hrs by pull-down assay; format: cell-based; conditions: DDE = dose-dependent effect
T3 sequence (whole entry): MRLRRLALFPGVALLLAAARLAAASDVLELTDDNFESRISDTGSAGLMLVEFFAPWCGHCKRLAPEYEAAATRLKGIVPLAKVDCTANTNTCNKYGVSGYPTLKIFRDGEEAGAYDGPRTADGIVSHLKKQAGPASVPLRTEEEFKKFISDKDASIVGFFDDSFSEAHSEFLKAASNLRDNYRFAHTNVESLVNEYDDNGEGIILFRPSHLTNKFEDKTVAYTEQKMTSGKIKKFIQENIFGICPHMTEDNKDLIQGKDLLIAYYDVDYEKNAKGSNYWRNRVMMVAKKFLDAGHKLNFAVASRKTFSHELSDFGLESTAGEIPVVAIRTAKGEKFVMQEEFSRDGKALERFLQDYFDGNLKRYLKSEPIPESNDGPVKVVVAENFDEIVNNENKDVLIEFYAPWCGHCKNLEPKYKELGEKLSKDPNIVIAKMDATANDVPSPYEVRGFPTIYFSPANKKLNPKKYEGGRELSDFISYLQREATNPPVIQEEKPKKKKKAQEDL

[6] = biological target: Tubulin beta (Homo sapiens) (UniProt P68371+Q9H4B7+Q13509+P04350+Q3ZCM7+P07437+Q13885+Q9BVA1+Q9BUF5+A6NNZ2); test: Binding affinity to beta-tubulin in human DOHH-2 cells by MS analysis; format: cell-based

Activity (Plastin-2 (Homo sapiens)): Dde | Activity [1]: Active | Activity [4]: Dde | Activity [5]: Dde | Activity [6]: Active
Compound: C#Cc1cccc(C#CS(N)(=O)=O)c1
Activity (DOHH-2 [2]): Active | Activity (DOHH-2 [3]): Active
